“Also recorded” adds a separate entry of the source.
Experiments:
[1] = system: MDA MB 231 cells; experiment: Cell proliferation MTT assay; format: cell-based
Description: Because the PI3K activation is critical in cell growth, the cell proliferation was analyzed to investigate the inhibitory effect of the FOG2 zinc finger domain using the MTT assay.
MDA MB 231 cells were seeded in a 96-well plate, and transfected with 100 ng DNA of pCKflag, FOG2-wt, FOG2-ZF-5-m or FOG2-ZF-6-m using Lipofectamine 2000. On 3 days post-transfection, the MTT assay was performed.
MDA MB 231 cells (2×10^3 cells) were seeded in a 96-well plate and treated with 4 μM each peptide for 3 days. After the treatment, 50 μl of MTT solution (2 mg/ml) was added to each well, incubated at 37° C. for 1 hr. Then, 150 μl of DMSO was added to each well and the absorbance value of each well was measured at 590 nm using a microplate reader.

[2] = system: Akt; experiment: Akt phosphorylation by Western blot in Hep3B cells treated with peptide and IGF-1; format: cell-based; settings: 4 μM peptide 2 days, serum-free 24 hr, IGF-1 30 min, FIG. 2D
Description: To test whether the Akt activity induced by IGF-1 treatment is inhibited by the synthesized peptides, Hep3B cells were incubated with IGF-1 and ZF-5-wt-24 […] and the expressions of Akt and pAkt were analyzed.
Hep3B cells were incubated with 4 μM ZF-5-wt-24 for 2 days and then further incubated in a serum-free media for 24 hr. Afterwards, the cells were incubated with IGF-1 for 30 min and subject to the Western blot analysis. Mock (DMSO) was used as a control.

[3] = system: MDA MB 231 cells; experiment: Cell migration, modified Boyden chamber method; format: cell-based; settings: 4 μM peptide, 2 days of treatment, 18 hr migration, FIG. 3B
Description: MDA MB 231 cells were transfected with pCK-flag (control), FOG2-wt (wild type) and FOG2 mutants having modified zinc finger domain (FOG2-ZF-5-m and FOG2-ZF-6-m). The cell migration was then analyzed using the modified Boyden chamber method (Albini A et al., Cancer Res 1987 47:3239-45). Following the transfection for 24 hr, MDA MB 231 cells (1×10^5) were suspended in a serum-free medium and seeded in triplicate in the upper part of BD chamber ([…] pore size). The lower part was filled with the serum-free medium. Following the incubation at 37° C. for 18 hr, non-migrating cells positioned at the upper surface of filters were cleaned with a cotton swab. The migrating cells passing through the lower surface of filters were fixed with 70% ethanol and treated with the Giemsa staining solution for 50 min. Then, the cells were rinsed with water and observed under a microscope. The cell migration rate was determined by counting the number of cells present in randomly-selected six sections and the migration range was expressed as the average number of cells per a microscopic field.
MDA MB 231 cells were incubated with 4 μM Mock (control, DMSO), 4 μM ZF-5-wt-24, 4 μM ZF-5-m-24, 4 μM ZF-5-wt-20 or 4 μM ZF-3-wt-21. After treatment, the cell migration was analyzed using the modified Boyden chamber method (Albini A et al., Cancer Res 1987 47:3239-45). After 2 days of treatment, MDA MB 231 cells (1×10^5) were suspended in the serum free medium and seeded in triplicate in the upper part of BD chamber ([…] pore size). The lower part was filled with the serum free medium. Following the incubation at 37° C. for 18 hr, non-migrating cells positioned at the upper surface of filters were cleaned with the cotton swab. The migrating cells passing through the lower side surface of filters were fixed with 70% ethanol and stained using the Giemsa stain method. The cell migration rate was determined by counting the number of cells present in randomly-selected six sections and the migration range was expressed as the average number of cells per a microscopic field.

[4] = system: HCT116 cells; experiment: Colony formation assay in 0.3% agar; format: cell-based; settings: synthesized peptide, one week, colonies over 1 mm counted, FIG. 3C
Description: HCT116 cells (1×10^3) were trypsinized and seeded in triplicate in a six-well plate. The serum-free medium containing the synthesized peptide in <Example 3> and 0.3% agar was incubated with the cells. One week after treatment, the generated colony was visualized with 0.5 mg/ml NBT (Nitro blue tetrazolium chloride) and the colonies over 1 mm in diameter were counted.

[5] = system: MDA MB 231 cells; experiment: Apoptosis by FACS analysis (propidium iodide) in MDA MB 231 cells; format: cell-based; settings: synthesized peptides, FIG. 7C
Description: PI3K inactivation has been reported to cause cancer cell apoptosis, and FOG2 is known to inhibit the PI3K activity. To test whether PI3K inactivation by overexpressing FOG2 induces apoptosis, MDA MB 231 cells overexpressed FOG2 were analyzed with FACS.
MDA MB 231 cells were incubated with Full-FOG2[1-1151], FOG2[1-412], FOG2[413-789] or FOG2[802-1151]. The cells (5×10^4) were seeded in a 12-well plate and transfected with 1 μg of Full-FOG2[1-1151], FOG2[1-412], FOG2[413-789] or FOG2[802-1151] using Lipofectamine 2000. The cells were incubated at 37° C. for 2 days and subject to FACS analysis.
The cells were incubated with FOG2 fragments and fixed with 70% ethanol for 16 hr. The fixed cells were stained using RNase (5 mg/ml) and propidium iodide ([…]). The amount of DNA in stained cells was analyzed with Cell Quest program of FACS caliber (Becton Dickinson).

[6] = system: MCF 7; experiment: Apoptosis by FACS analysis in MCF7 cells; format: cell-based; settings: synthesized peptides, FIG. 7D
From the text: FIG. 7D is a graph showing the apoptotic effect by synthesized zinc finger domain peptides of FOG2 in MCF7 cells according to FACS analysis;

[7] = target: T1, PI3K (Homo sapiens, UniProt P27986); experiment: PI3K activity in MDA MB 231 cells incubated with zinc finger domain peptides; format: cell-based; parameters: The cell lysates were immunoprecipitated with p85α (sc-1637, Santa Cruz) and Protein G-Sepharose beads; endogenous in cells; settings: synthesized peptides, FIG. 5
T1 sequence (P27986 whole entry, the tested form may be a part): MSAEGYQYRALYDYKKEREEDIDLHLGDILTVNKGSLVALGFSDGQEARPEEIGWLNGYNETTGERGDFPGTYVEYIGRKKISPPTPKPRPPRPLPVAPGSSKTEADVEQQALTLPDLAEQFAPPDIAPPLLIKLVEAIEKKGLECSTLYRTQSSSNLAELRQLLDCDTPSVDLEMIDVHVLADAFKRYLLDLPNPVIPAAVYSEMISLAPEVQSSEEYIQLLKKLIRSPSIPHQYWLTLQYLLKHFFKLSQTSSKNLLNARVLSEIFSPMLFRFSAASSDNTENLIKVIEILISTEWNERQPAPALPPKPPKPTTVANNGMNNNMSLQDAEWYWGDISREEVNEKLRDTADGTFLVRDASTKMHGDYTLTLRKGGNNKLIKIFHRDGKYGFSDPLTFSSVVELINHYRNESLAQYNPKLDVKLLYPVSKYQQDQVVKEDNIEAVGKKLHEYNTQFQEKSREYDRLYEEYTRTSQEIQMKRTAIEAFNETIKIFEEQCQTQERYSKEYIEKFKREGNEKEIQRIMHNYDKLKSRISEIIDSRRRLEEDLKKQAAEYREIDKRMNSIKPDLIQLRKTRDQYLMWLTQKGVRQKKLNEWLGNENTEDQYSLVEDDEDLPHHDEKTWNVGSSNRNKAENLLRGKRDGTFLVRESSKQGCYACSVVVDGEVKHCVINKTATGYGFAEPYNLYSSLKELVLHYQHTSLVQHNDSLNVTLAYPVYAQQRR
Description: (§1) For measurement of PI3K activity, 10 μl of sonicated PIP2 (1 μg/μl, Calbiochem), 10 μl of 100 mM MgCl2 and 1 μl of [-^32P]ATP (500 μCi/ml) were added to the kinase buffer (10 mM Tris-HCl (pH 7.4), 150 mM NaCl, 1 mM Na3VO4, 10 mM ZnCl2) and incubated at 37° C. for 30 min. After incubation, 20 μl of 6 N HCl was added to stop the reaction and PIP2 was extracted by treatment with 200 μl of methanol:chloroform (1:1) solution. The amount of radioactively labeled PIP2 in the extract was measured using a scintillator counter.
For peptide treatment, cells were trypsinized to detach them from a culture dish and their aliquot (2×10^5 cells) was incubated with 4 μM peptides in 100 mm dishes. The control was incubated with Mock (DMSO).

[8] = target: T1, PI3K; experiment: In vitro competition analysis (PI3K immunoprecipitated from 293T cell lysates with p85α antibody plus peptides); format: biochemical; parameters: The cell lysates were immunoprecipitated with p85α (sc-1637, Santa Cruz) and Protein G-Sepharose beads; endogenous in cells; settings: peptides 1 μM, 5 μM and 10 μM, dose-dependent, compared with ZF-3-wt-21, FIG. 2B
Description: The in vitro competition analysis was performed by PI3K immunoprecipitation in 293T cells. The activated PI3K was extracted from the 293T cell lysates by immunoprecipitating with p85α antibody simultaneously with addition of the synthesized peptides (1 μM, 5 μM and 10 μM). The PI3K activation was induced as described above.

[9] = target: T1, PI3K; experiment: IGF-1-induced PI3K activation in Hep3B cells incubated with peptides; format: cell-based; parameters: The cell lysates were immunoprecipitated with p85α (sc-1637, Santa Cruz) and Protein G-Sepharose beads; endogenous in cells; host or cells: Hep3B; settings: 4 μM peptides, 48 hr, FIG. 2C
Description: as §1
In addition, Hep3B liver cancer cells were incubated with 4 μM peptides for 48 hr and the PI3K activity was analyzed.

ZF-5-wt-24: The peptide comprising a portion of the fifth zinc finger domain of FOG2 (24 amino acids); residues 547-570 (GATCFECNITFNNLDNYLVHKKHY)
reduction of cell proliferation ([1]; 4 μM peptide for 3 days): about 40% | inhibitory effect on cell proliferation ([1]; synthesized peptide, increasing concentration, FIG. 6B): reduces the cancer cell proliferation; also recorded: became more prominent as ZF-5-wt-24 concentration increased | Akt phosphorylation induced by IGF-1 stimulation [2]: reduced | reduction of cell migration [3]: reduce the cell migration | number of colonies / colony formation [4]: reduces the colony formation; also recorded: reduced | apoptosis [5]: promoted apoptosis | apoptosis [6]: promoted apoptosis | PI3K activity [7]: decrease PI3K activity | reduction of PI3K activity [8]: about 40% | IGF-1-induced PI3K activation [9]: inhibited

— patent US20130116185A1, “PHOSPHATIDYLINOSITOL 3-KINASES ACTIVITY REGULATOR INCLUDING THE FIFTH ZINC FINGER DOMAIN OF FOG2” (SNU R&DB FOUNDATION, priority 2010, published 2013)
